Results as given in PubChem BioAssay (NCI).
Where “and” joins values, the source holds several entries; their conditions need not be identical. Equal entries are not always repeated.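 Results reflect a 48-hour exposure of cells in 96-well plates to compound at five concentrations. GI50: concentration for 50% inhibition of growth. TGI: concentration producing complete growth inhibition.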

Tests used:
Experiment in all cases: NCI-60 cell line screen, 48 h
[1] = test system: NCI-H522 lung
[2] = test system: OVCAR-5 ovarian
[3] = test system: SK-OV-3 ovarian
[4] = test system: SF-268 CNS
[5] = test system: HT29 colon
[6] = test system: UACC-257 melanoma
[7] = test system: A549 NSCLC
[8] = test system: EKVX NSCLC
[9] = test system: RXF 393 renal
[10] = test system: IGROV1 ovarian

Row | SMILES | TGI [1] | TGI [2] | TGI [3] | TGI [4] [µM] | TGI [5] | TGI [6] [µM] | TGI [7] | TGI [8] | TGI [9] | TGI [10] | GI50 [1] | GI50 [2] | GI50 [3] | GI50 [4] [µM] | GI50 [5] | GI50 [6] [µM] | GI50 [7] | GI50 [8] | GI50 [9] | GI50 [10]
1 | CCCCCC1C2C(=O)NC(=O)C1C(=O)NC2=O (stereo not given) | > 100 µM | > 100 µM | > 100 µM | > 100 | > 100 µM | > 100 | > 100 µM | > 100 µM | > 100 µM | > 100 µM |  |  |  |  |  |  |  |  |  | 
2 | C[CH2][Ge]1([CH2]C)[CH2]CC2(CCN(CCCN(C)C)C2)C[CH2]1 | 2.88 µM and 24.4 µM | 3.8 µM and 5.19 µM | 6.11 µM and 9.62 µM | 3.96 | 1.59 µM and 6.05 µM | 2.64 | 2.93 µM and 4.47 µM | 6.56 µM and 4.44 µM | 4.29 µM and 3.4 µM | 3.42 µM and 10.8 µM | 1.3 µM and 11.2 µM | 1.84 µM and 2.45 µM | 2.64 µM and 3.59 µM | 1.81 | 0.4 µM and 2.24 µM | 1.31 | 1.44 µM and 2.35 µM | 1.7 µM and 2.33 µM | 1.71 µM and 1.21 µM | 1.75 µM and 4.54 µM
3 | C=C1C(=O)O[C@H]2[C@H]1CC/C(Cn1cc(CNC(=O)c3cc4ccccc4[nH]3)nn1)=C\CC[C@@]1(C)O[C@@H]21 | 2.84 µM | 9.07 µM | > 100 µM | 22.5 | 10.1 µM | 16 | 46.5 µM | 30.2 µM | 4.28 µM | 10.6 µM | 0.921 µM | 2.51 µM | 50.4 µM | 7.26 | 2.85 µM | 4 | 22.1 µM | 13.2 µM | 2.16 µM | 3.24 µM
4 | CC(=O)/C=C\C(=O)NNS(=O)(=O)c1ccc(C)cc1 | > 100 µM | > 100 µM | > 100 µM | > 100 | > 100 µM | > 100 | > 100 µM | > 100 µM | > 100 µM | > 100 µM |  |  |  |  |  |  |  |  |  | 
5 | O=C(NC(c1ccccc1)C(O)C(=O)OCc1ccc2c(c1)C(=O)c1ccccc1C2=O)c1ccccc1 (stereo not given) | 63.6 µM | 79.9 µM | 15.3 µM | 70.1 | > 85.2 µM | > 72 | 54 µM | > 83.1 µM | 8.57 µM | 48.5 µM |  |  |  |  |  |  |  |  |  | 
6 | Cc1ccc(S(=O)(=O)c2ccccn2)cc1 | > 100 µM | 97.2 µM | > 100 µM | > 100 | > 100 µM | > 100 | > 100 µM | > 100 µM | > 100 µM | > 100 µM |  |  |  |  |  |  |  |  |  | 
7 | Cc1nn(-c2ccccc2)c2ncc3c(c12)C(=O)N(Cc1ccccc1)C3=O | > 100 µM | > 100 µM | > 100 µM | 66.5 | > 100 µM | > 100 | > 100 µM | > 100 µM | 38.3 µM | 64.7 µM | 19.8 µM | > 100 µM | 5.73 µM | 7.66 | > 100 µM | > 100 | 5.25 µM | 5.64 µM | 6.67 µM | 5.37 µM
8 | CN(C)c1ccc(/C=C/C(=O)c2ccc(Nc3nc(Nc4ccc(F)cc4)nc(Nc4ccc(Cl)cc4)n3)cc2)cc1 | 24.1 µM | > 100 µM | 74.9 µM | 63.6 | 38.9 µM | 54.7 | 35.1 µM | > 100 µM | 6.1 µM | 22.1 µM | 3.17 µM | 20.3 µM | 19 µM | 6.75 | 5.18 µM | 11 | 5.03 µM | 8.21 µM | 1.92 µM | 3.02 µM
9 | COc1cc(OC)c(-c2oc3ccccc3c(=O)c2O)c(OC)c1 | > 29.2 µM | > 100 µM | > 100 µM | > 100 | > 100 µM | > 100 | > 100 µM | > 100 µM | 37.7 µM | > 100 µM |  |  |  |  |  |  |  |  |  | 
10 | Cc1ccc(SCN2CCCCC2)cc1 (tested in a mixture with another compound) | 8.86 µM | 25.8 µM | 29.7 µM | 20.6 | 31.5 µM | 30.6 | 72.8 µM | 39.2 µM | 22.3 µM | 10.9 µM |  |  |  |  |  |  |  |  |  | 
11 | COC(=O)[C@@H](C)C[C@H](Cc1ccccc1)NC(=O)c1cccc([C@@H](C[C@H](C(C)C)N(C)C(=O)[C@@H](NC(=O)[C@H]2CCCCN2C)C(C)C)OC(C)=O)n1 | 0.00263 µM | > 16.7 µM | > 16.7 µM | > 16.7 | > 16.7 µM | > 16.7 | > 16.7 µM | > 16.7 µM | > 16.7 µM | > 16.7 µM | < 0.00167 µM | 0.00772 µM | 0.00235 µM | 0.0164 | < 0.00167 µM | 0.0118 | 0.00591 µM | 0.00497 µM | < 0.00167 µM | < 0.00167 µM
12 | NC(=O)NOCC1NC(=O)NC1=O (stereo not given) | > 100 µM | > 100 µM | > 100 µM | > 100 | > 100 µM | > 100 | > 100 µM | > 100 µM | > 100 µM | > 100 µM |  |  |  |  |  |  |  |  |  | 
13 | O=C(Nc1cccc(Cl)c1)c1cc2cc(N=Nc3ccc(Br)cc3)ccc2oc1=O | > 100 µM | 58 µM | > 100 µM | > 100 | > 100 µM | > 100 | > 100 µM | > 100 µM | > 100 µM | > 100 µM |  |  |  |  |  |  |  |  |  | 
